Test system: A549 cells
Test: confocal microscopy of ceramide and caspase 8
Type: cell-based, human
Settings: 300 nM, 30 minutes after treatment
Procedure: Confocal microscopy. […] After treatment, the cells were fixed 10 minutes at room temperature with 4% PFA, washed twice with PBS, permeabilized 2 minutes at room temperature with 0.1% triton in PBS and blocked for 30 minutes with sterile 2% BSA in PBS. The staining was performed at room temperature for 2 hours (h), with mouse monoclonal anti-human ceramide (Alexis) and rabbit anti-human caspase 8 (BD Pharmingen) antibodies followed by secondary goat anti-mouse ALEXA FLUOR568™ and goat anti-rabbit ALEXA FLUOR488™ antibodies (Invitrogen). The blue DNA binding dye TOPRO-3™ (Molecular Probes) was added together with the secondary antibodies. The cells were washed three times with PBS between the different incubation steps and the incubation with the secondary fluorescently labeled antibodies was performed in the dark. All antibodies were diluted in PBS. Confocal images were recorded on a Nikon ECLIPSE C1™ confocal microscope.

With CCCCC/C=C\C/C=C\C/C=C\C/C=C\CCCC(=O)O [arachidonic acid, reference compound] the cell surface ceramide was “absent”.

From patent US9045401B2, “Methods for treating or ameliorating a melanoma and killing melanoma cells” (THE REGENTS OF THE UNIVERSITY OF CALIFORNIA, priority 2007, dated 2015)
